What follows are molecules tested against BRD4 (Homo sapiens (Human), UniProt O60885). Details: read-out: BRD4 IC50 (μM gmean).
Molecule `COC(=O)N1c2ccc3c(nc(CCn4ccccc4=O)n3CC(=O)NCC(=O)N(C)C)c2CC[C@@H]1C` [Example 382] has an IC50 of 1 to 1000 µM. Molecule `COC(=O)N1c2ccc3c(nc(CCn4ccccc4=O)n3CC(=O)NCC(=O)N3CCCC3)c2CC[C@@H]1C` [Example 383] has an IC50 of 1 to 1000 µM. `COC(=O)N1c2ccc3c(nc(CCn4ccccc4=O)n3CC(=O)N(C)C3CCOCC3)c2CC[C@@H]1C` [Example 384] showed an IC50 of 1 to 1000 µM. `COC(=O)N1c2ccc3c(nc(CCn4ccccc4=O)n3CC(=O)NCC3CCOCC3)c2CC[C@@H]1C` [Example 385] was tested, and the IC50 was 1 to 1000 µM. With `COC(=O)N1c2ccc3c(nc(CCn4ccccc4=O)n3CC(=O)NC3CCOCC3)c2CC[C@@H]1C` [Example 386] the IC50 was 1 to 1000 µM. In the case of `COC(=O)N1c2ccc3c(nc(CCn4ccccc4=O)n3CC(=O)N(C)[C@H]3CCOC3)c2CC[C@@H]1C` [Example 387], the IC50 is reported as 1 to 1000 µM. `COC(=O)N1c2ccc3c(nc(CCn4ccccc4=O)n3CC(=O)N3CC[C@H](C(N)=O)C3)c2CC[C@@H]1C` [Example 388] gave an IC50 of 1 to 1000 µM. `COC(=O)N1c2ccc3c(nc(CCn4ccccc4=O)n3CC(=O)N(C)CC(C)(C)O)c2CC[C@@H]1C` [Example 389] was tested, and the IC50 was 1 to 1000 µM. Work on `COC(=O)N1c2ccc3c(nc(CCn4ccccc4=O)n3CC(=O)NCC3(O)CCC3)c2CC[C@@H]1C` [Example 390] yielded an IC50 of 1 to 1000 µM. `COC(=O)N1c2ccc3c(nc(CCn4ccccc4=O)n3CC(=O)NCc3cc(C)no3)c2CC[C@@H]1C` [Example 391] was tested, and the IC50 was 1 to 1000 µM. Work on `COC(=O)N1c2ccc3c(nc(CCn4ccccc4=O)n3CC(=O)NCC3(C)COC3)c2CC[C@@H]1C` [Example 392] yielded an IC50 of 1 to 1000 µM. `COC(=O)N1c2ccc3c(nc(CCn4ccccc4=O)n3CC(=O)NC3COC3)c2CC[C@@H]1C` [Example 393] gave an IC50 of 1 to 1000 µM. With `COC(=O)N1c2ccc3c(nc(CCn4ccccc4=O)n3CC(=O)NCC#N)c2CC[C@@H]1C` [Example 394] the IC50 was 1 to 1000 µM. In the case of `COC(=O)N1c2ccc3c(nc(CCn4ccccc4=O)n3CC(=O)NCCN3CCNC3=O)c2CC[C@@H]1C` [Example 395], the IC50 is reported as 1 to 1000 µM. Work on `COC(=O)N1c2ccc3c(nc(CCn4ccccc4=O)n3CC(=O)N3CCC(C#N)CC3)c2CC[C@@H]1C` [Example 396] yielded an IC50 of 1 to 1000 µM. `COC(=O)N1c2ccc3c(nc(CCn4ccccc4=O)n3CC(=O)N3CC[C@@H](NC(C)=O)C3)c2CC[C@@H]1C` [Example 397] showed an IC50 of 1 to 1000 µM. For `COC(=O)N1c2ccc3c(nc(CCn4ccccc4=O)n3CC(=O)N3CC[C@H](NC(C)=O)C3)c2CC[C@@H]1C` [Example 398], the IC50 was 1 to 1000 µM. Molecule `COC(=O)N1c2ccc3c(nc(CCn4ccccc4=O)n3CC(=O)N3CC[C@H](O)C3)c2CC[C@@H]1C` [Example 399] has an IC50 of 1 to 1000 µM. `COC(=O)N1c2ccc3c(nc(CCn4ccccc4=O)n3CC(=O)N3CCNC(=O)C3)c2CC[C@@H]1C` [Example 400] showed an IC50 of 1 to 1000 µM. `COC(=O)N1c2ccc3c(nc(CCn4ccccc4=O)n3CC(=O)N3CCC(F)(F)C3)c2CC[C@@H]1C` [Example 401] gave an IC50 of 1 to 1000 µM. Molecule `COC(=O)N1c2ccc3c(nc(CCn4ccccc4=O)n3CC(=O)N3CCn4ccnc4C3)c2CC[C@@H]1C` [Example 402] has an IC50 of 1 to 1000 µM. `COC(=O)N1c2ccc3c(nc(CCn4ccccc4=O)n3CC(=O)Nc3ccn[nH]3)c2CC[C@@H]1C` [Example 403] gave an IC50 of 1 to 1000 µM. Molecule `COC(=O)N1c2ccc3c(nc(CC(C(=O)O)c4ccccc4)n3C3CCCC(OC)C3)c2CC[C@@H]1C` (some centres unmarked) [Example 404] has an IC50 of 1 to 1000 µM. For `COC(=O)N1c2ccc3c(nc(C(C)Cc4ccc(F)c(F)c4)n3C3CCCC(C(=O)O)C3)c2CC[C@@H]1C` (some centres unmarked) [Example 405], the IC50 was 1 to 1000 µM. Molecule `COC(=O)N1c2ccc3c(nc(CC(C(=O)O)c4ccc(C)c(F)c4)n3C3CCCOC3)c2CC[C@@H]1C` (some centres unmarked) [Example 407] has an IC50 of 1 to 1000 µM. Work on `COC(=O)N1c2ccc3c(nc(C(O)c4ccc(F)c(F)c4)n3C3CCCC(C(=O)O)C3)c2CC[C@@H]1C` (some centres unmarked) [Example 432] yielded an IC50 of 1 to 1000 µM. With `COC(=O)N1c2ccc3c(nc(C(C)Cn4cc(Cl)cn4)n3C3CCCC(C(=O)O)C3)c2CC[C@@H]1C` (some centres unmarked) [Example 443] the IC50 was 1 to 1000 µM. Molecule `COC(=O)N1c2ccc3c(nc(CC(C(=O)O)c4ccc(C)c(F)c4)n3C3CCCOC3)c2CC[C@@H]1C` (some centres unmarked) [Example 446] has an IC50 of 1 to 1000 µM. `COC(=O)N1c2ccc3c(nc(CC(C(=O)O)c4ccc(F)c(F)c4)n3C3CCCC3)c2CC[C@@H]1C` (some centres unmarked) [Example 447] showed an IC50 of 1 to 1000 µM. With `COC(=O)N1c2ccc3c(nc(C(O)c4cc(F)ccc4F)n3C3CCCC(C(=O)O)C3)c2CC[C@@H]1C` (some centres unmarked) [Example 449] the IC50 was 1 to 1000 µM. In the case of `COC(=O)N1c2ccc3c(nc(CC(C(=O)O)c4ccccc4)n3C3CCCC(OC)C3)c2CC[C@@H]1C` (some centres unmarked) [Example 455], the IC50 is reported as 1 to 1000 µM. Molecule `COC(=O)N1c2ccc3c(nc(C(C)Cn4ccc(Cl)n4)n3C3CCCC(C(=O)O)C3)c2CC[C@@H]1C` (some centres unmarked) [Example 459] has an IC50 of 1 to 1000 µM. Molecule `COC(=O)N1c2ccc3c(nc(C(c4ccc(OC)c(F)c4)C(C)C)n3C3CCC(C(=O)O)CC3)c2CC[C@@H]1C` (some centres unmarked) [Example 466] has an IC50 of 1 to 1000 µM. In the case of `COC(=O)N1c2ccc3c(nc(CC(C(=O)O)c4ccc5ccccc5c4)n3C3CCCOC3)c2CC[C@@H]1C` (some centres unmarked) [Example 468], the IC50 is reported as 1 to 1000 µM. With `COC(=O)N1c2ccc3c(nc(Cc4ccc(C)c(F)c4)n3[C@@H]3CCC[C@@H](C(=O)O)C3)c2CC[C@@H]1C` [Example 471] the IC50 was 1 to 1000 µM. In the case of `COC(=O)N1c2ccc3c(nc(CC(C(=O)O)c4ccccc4)n3C3CCCC(OC)C3)c2CC[C@@H]1C` (some centres unmarked) [Example 475], the IC50 is reported as 1 to 1000 µM. With `COC(=O)N1c2ccc3c(nc(Cc4ccc(OC)c(F)c4)n3[C@@H]3CCC[C@@H](C(=O)O)C3)c2CC[C@@H]1C` [Example 481] the IC50 was 1 to 1000 µM. `COC(=O)N1c2ccc3c(nc(C(C)Cn4ccc(C)n4)n3C3CCCC(C(=O)O)C3)c2CC[C@@H]1C` (some centres unmarked) [Example 485] was tested, and the IC50 was 1 to 1000 µM. For `COC(=O)N1c2ccc3c(nc(CC(C(=O)O)c4cccc(F)c4)n3C3CCCOC3)c2CC[C@@H]1C` (some centres unmarked) [Example 490], the IC50 was 1 to 1000 µM. `COC(=O)N1c2ccc3c(nc(C(C)Cn4cc(C(F)F)cn4)n3C3CCCC(C(=O)O)C3)c2CC[C@@H]1C` (some centres unmarked) [Example 492] gave an IC50 of 1 to 1000 µM. Molecule `COC(=O)N1c2ccc3c(nc(CC(C(=O)O)c4ccc(Cl)cc4)n3C3CCCOC3)c2CC[C@@H]1C` (some centres unmarked) [Example 495] has an IC50 of 1 to 1000 µM. `COC(=O)N1c2ccc3c(nc(CC(C(=O)O)c4ccc(C)cc4)n3C3CCCOC3)c2CC[C@@H]1C` (some centres unmarked) [Example 497] was tested, and the IC50 was 1 to 1000 µM. In the case of `COC(=O)N1c2ccc3c(nc(Cc4ccc(F)c(F)c4)n3[C@@H]3CCC[C@@H](C(=O)O)C3)c2CC[C@@H]1C` [Example 502], the IC50 is reported as 1 to 1000 µM. Molecule `COC(=O)N1c2ccc3c(nc(C(C)Cn4cc(C(F)F)cn4)n3C3CCC(C(=O)O)CC3)c2CC[C@@H]1C` (some centres unmarked) [Example 504] has an IC50 of 1 to 1000 µM. Molecule `COC(=O)N1c2ccc3c(nc(C(CO)c4ccccc4)n3C3CCCC(C(=O)O)C3)c2CC[C@@H]1C` (some centres unmarked) [Example 505] has an IC50 of 1 to 1000 µM. Molecule `COC(=O)N1c2ccc3c(nc(Cc4ccc(OC)c(Cl)c4)n3[C@H]3CC[C@H](C(=O)O)CC3)c2CC[C@@H]1C` [Example 508] has an IC50 of 1 to 1000 µM. With `COC(=O)N1c2ccc3c(nc(CCc4ccc(F)c(F)c4)n3[C@@H]3CCC[C@@H](C(=O)O)C3)c2CC[C@@H]1C` [Example 509] the IC50 was 1 to 1000 µM. With `COC(=O)N1c2ccc3c(nc(CC(C(=O)O)c4ccc(F)cc4)n3C3CCCOC3)c2CC[C@@H]1C` (some centres unmarked) [Example 510] the IC50 was 1 to 1000 µM. `COC(=O)N1c2ccc3c(nc(Cc4cc(Cl)cc(OC)c4)n3[C@@H]3CCC[C@@H](C(=O)O)C3)c2CC[C@@H]1C` [Example 512] was tested, and the IC50 was 1 to 1000 µM. In the case of `COC(=O)N1c2ccc3c(nc(CCC4CCCC4)n3C3CCCC(C(=O)O)C3)c2CC[C@@H]1C` (some centres unmarked) [Example 514], the IC50 is reported as 1 to 1000 µM. With `COC(=O)N1c2ccc3c(nc(CC(C(=O)O)c4ccccc4)n3-c3cccc(OC)c3)c2CC[C@@H]1C` (some centres unmarked) [Example 516] the IC50 was 1 to 1000 µM. For `COC(=O)N1c2ccc3c(nc(CCc4ccccc4C(=O)O)n3C3CCCCC3)c2CC[C@@H]1C` [Example 521], the IC50 was 1 to 1000 µM. For `C/C=C(\Oc1ccccc1)c1nc2c3c(ccc2n1[C@@H]1CCC[C@@H](C(=O)O)C1)N(C(=O)OC)[C@@H](C)CC3` [Example 522], the IC50 was 1 to 1000 µM. `COC(=O)N1c2ccc3c(nc(CC(C(=O)O)c4ccc(C(F)F)cc4)n3C3CCCOC3)c2CC[C@@H]1C` (some centres unmarked) [Example 524] was tested, and the IC50 was 1 to 1000 µM. `COC(=O)N1c2ccc3c(nc(C(C)Cn4ccc(C)n4)n3C3CCC(C(=O)O)CC3)c2CC[C@@H]1C` (some centres unmarked) [Example 526] was tested, and the IC50 was 1 to 1000 µM. In the case of `COC(=O)N1c2ccc3c(nc(Cc4ccc(OC(F)F)cc4)n3[C@@H]3CCC[C@@H](C(=O)O)C3)c2CC[C@@H]1C` [Example 533], the IC50 is reported as 1 to 1000 µM. With `CCC(O)(c1ccccc1)c1nc2c3c(ccc2n1[C@@H]1CCC[C@@H](C(=O)O)C1)N(C(=O)OC)[C@@H](C)CC3` (some centres unmarked) [Example 534] the IC50 was 1 to 1000 µM. Molecule `COC(=O)N1c2ccc3c(nc(CC(C(=O)O)c4ccccc4)n3-c3ccc(OC)cc3)c2CC[C@@H]1C` (some centres unmarked) [Example 536] has an IC50 of 1 to 1000 µM. For `COC(=O)N1c2ccc3c(nc(CC(C(=O)O)c4ccc(C)cc4)n3C3CCCOC3)c2CC[C@@H]1C` (some centres unmarked) [Example 539], the IC50 was 1 to 1000 µM. `COC(=O)N1c2ccc3c(nc(Cc4cc(F)cc(OC)c4)n3[C@@H]3CCC[C@@H](C(=O)O)C3)c2CC[C@@H]1C` [Example 541] gave an IC50 of 1 to 1000 µM. `COC(=O)N1c2ccc3c(nc(C(C)(O)c4ccccc4)n3C3CCCC(C(=O)O)C3)c2CC[C@@H]1C` (some centres unmarked) [Example 542] showed an IC50 of 1 to 1000 µM. For `COC(=O)N1c2ccc3c(nc(Cc4ccc(OC(F)F)cc4)n3[C@H]3CC[C@H](C(=O)O)CC3)c2CC[C@@H]1C` [Example 544], the IC50 was 1 to 1000 µM. `COC(=O)N1c2ccc3c(nc(Cc4ccc(C)cc4)n3[C@@H]3CCC[C@@H](C(=O)O)C3)c2CC[C@@H]1C` [Example 549] showed an IC50 of 1 to 1000 µM. With `COC(=O)N1c2ccc3c(nc(CCc4ccc(C)c(F)c4)n3[C@@H]3CCC[C@@H](C(=O)O)C3)c2CC[C@@H]1C` [Example 550] the IC50 was 1 to 1000 µM. `COC(=O)N1c2ccc3c(nc(C(C)Cn4cc(Cl)cn4)n3C3CCC(C(=O)O)CC3)c2CC[C@@H]1C` (some centres unmarked) [Example 551] gave an IC50 of 1 to 1000 µM. In the case of `COC(=O)N1c2ccc3c(nc(Cc4ccc(OC)c(F)c4F)n3[C@H]3CC[C@H](C(=O)O)CC3)c2CC[C@@H]1C` [Example 553], the IC50 is reported as 1 to 1000 µM. Molecule `COC(=O)N1c2ccc3c(nc(Cc4ccccc4C(=O)O)n3C3CCCCC3)c2CC[C@@H]1C` [Example 555] has an IC50 of 1 to 1000 µM. `COC(=O)N1c2ccc3c(nc(C(C)(C)c4ccc(OC)c(F)c4)n3[C@H]3CC[C@H](C(=O)O)CC3)c2CC[C@@H]1C` [Example 560] was tested, and the IC50 was 1 to 1000 µM.
